Experiments:
Experiment in all cases: relative viability (nuclei count vs DMSO), 5 days (fraction); higher = more cells survive
GSK126 + Tozasertib = compound: CC[C@H](C)N1C=C(C2=C(C=C(C=C21)C3=CN=C(C=C3)N4CCNCC4)C(=O)NCC5=C(C=C(NC5=O)C)C)C [GSK126] + Cc1cc(Nc2cc(N3CCN(C)CC3)nc(Sc3ccc(NC(=O)C4CC4)cc3)n2)n[nH]1 [Tozasertib] (partner 0.1 µM)
Outline: (§1)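 Relative viability equals treated-well nuclei counts divided by vehicle-well nuclei counts. Counts came from 4× images of lung cancer cell lines grown in 1536-well plates for 5 days after pin-tool dosing on the day after seeding. Dosing used one drug alone or a fixed anchor-drug dose plus five library-drug doses (not always all listed) in √10 steps, and values are medians of duplicate plates.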

MLN4924 + Palbociclib = compound: NS(=O)(=O)OC[C@@H]1C[C@@H](n2ccc3c(N[C@H]4CCc5ccccc54)ncnc32)C[C@@H]1O [MLN4924] + CC(=O)c1c(C)c2cnc(Nc3ccc(N4CCNCC4)cn3)nc2n(C2CCCC2)c1=O [Palbociclib] (partner 0.5 µM)
Outline: as §1

MLN4924 + Alpelisib = compound: NS(=O)(=O)OC[C@@H]1C[C@@H](n2ccc3c(N[C@H]4CCc5ccccc54)ncnc32)C[C@@H]1O [MLN4924] + Cc1nc(NC(=O)N2CCC[C@H]2C(N)=O)sc1-c1ccnc(C(C)(C)C(F)(F)F)c1 [Alpelisib] (partner 2 µM)
Outline: as §1

MLN4924 + Decitabine = compound: NS(=O)(=O)OC[C@@H]1C[C@@H](n2ccc3c(N[C@H]4CCc5ccccc54)ncnc32)C[C@@H]1O [MLN4924] + Nc1ncn([C@H]2C[C@H](O)[C@@H](CO)O2)c(=O)n1 [Decitabine] (partner 2 µM)
Outline: as §1

Cell Line	relative viability (GSK126 + Tozasertib; first compound 0.08 µM)	relative viability (GSK126 + Tozasertib; first compound 0.253 µM)	relative viability (GSK126 + Tozasertib; first compound 0.8 µM)	relative viability (GSK126 + Tozasertib; first compound 2.53 µM)	relative viability (GSK126 + Tozasertib; first compound 8 µM)	relative viability (MLN4924 + Palbociclib; first compound 0.04 µM)	relative viability (MLN4924 + Palbociclib; first compound 0.1265 µM)	relative viability (MLN4924 + Palbociclib; first compound 0.4 µM)	relative viability (MLN4924 + Palbociclib; first compound 1.265 µM)	relative viability (MLN4924 + Palbociclib; first compound 4 µM)	relative viability (MLN4924 + Alpelisib; first compound 0.04 µM)	relative viability (MLN4924 + Alpelisib; first compound 0.1265 µM)	relative viability (MLN4924 + Alpelisib; first compound 0.4 µM)	relative viability (MLN4924 + Alpelisib; first compound 1.265 µM)	relative viability (MLN4924 + Alpelisib; first compound 4 µM)	relative viability (MLN4924 + Decitabine; first compound 0.04 µM)	relative viability (MLN4924 + Decitabine; first compound 0.1265 µM)	relative viability (MLN4924 + Decitabine; first compound 0.4 µM)	relative viability (MLN4924 + Decitabine; first compound 1.265 µM)	relative viability (MLN4924 + Decitabine; first compound 4 µM)
NCI-H2170	0.697	0.661	0.764	0.651	0.661	0.392	0.242	0.253	0.109	0.124	0.906	0.555	0.457	0.169	0.171	0.444	0.249	0.273	0.167	0.144
EKVX	0.411	0.443	0.4	0.355	0.326	0.389	0.362	0.334	0.188	0.142	0.926	0.748	0.519	0.164	0.144	0.35	0.369	0.346	0.22	0.191
NCI-H1437	0.42	0.433	0.4	0.35	0.388	0.292	0.321	0.228	0.187	0.134	0.905	0.977	0.755	0.422	0.101	0.529	0.435	0.438	0.254	0.249
PC-3 [JPC-3]	0.879	0.919	0.883	0.866	0.805	0.556	0.53	0.373	0.346	0.46	0.996	0.963	0.896	0.327	0.266	0.808	0.83	0.408	0.46	0.451
LK-2	0.209	0.212	0.175	0.183	0.189	0.508	0.342	0.284	0.138	0.161	0.991	0.886	0.667	0.267	0.299	0.228	0.253	0.216	0.118	0.156
NCI-H1651	0.717	0.728	0.864	0.57	0.537	0.521	0.54	0.569	0.374	0.191	1.11	0.961	0.793	0.362	0.168	0.578	0.586	0.46	0.216	0.146
LC-2-ad	0.43	0.472	0.428	0.458	0.419	0.443	0.427	0.432	0.233	0.196	0.834	0.729	0.41	0.153	0.0751	0.791	0.748	0.585	0.508	0.322

Source: the supplement of paper PMC10307832
